According to PMC11191402, “High-Affinity NIR-Fluorescent Inhibitors for Tumor Imaging via Carbonic Anhydrase IX” (Bioconjugate Chemistry, 2024):

Target: T1, human recombinant CAVB (Homo sapiens, UniProt Q9Y2D0)
T1 construct: Most isozymes were truncated, and only the catalytic domains of the proteins were produced; made in house; host or cells: bacterial expression system
Test: Fluorescence-based thermal shift assay (FTSA), CAVB
Assay type: binding
Conditions: 37 °C, pH 7.0
Description: The binding affinities of the four NIR-fluorescent compounds to 12 catalytically active recombinant CA isozymes were determined by the fluorescence-based thermal shift assay (FTSA), and the dissociation constants (Kd’s) at physiological pH (pH 7.0) and 37 °C are listed in Table 1.
All 12 catalytically active human CA isozymes were prepared recombinantly as previously described. Most isozymes were truncated, and only the catalytic domains of the proteins were produced.[9],[56] All isozymes were expressed in a bacterial expression system except that CAIX was expressed in mammalian cells. The proteins were chromatographically purified via immobilized metal affinity chromatography, ion-exchange, or p-aminomethylbenzenesulfonamide-sepharose affinity chromatography. Protein purity was confirmed by SDS-PAGE, and MW was confirmed by mass spectrometry with 1 Da precision, as predicted from theoretical protein sequence.
The fluorescence-based thermal shift assay (FTSA) was used to determine the binding affinity of compounds for all catalytically active CA isozymes. […] The CA isozyme melting temperature Tm was determined by following the fluorescence of 8-anilino-1-naphthalenesulfonate (ANS) or Glomelt dye. […]

T1 sequence (Q9Y2D0 37-296 limits assumed): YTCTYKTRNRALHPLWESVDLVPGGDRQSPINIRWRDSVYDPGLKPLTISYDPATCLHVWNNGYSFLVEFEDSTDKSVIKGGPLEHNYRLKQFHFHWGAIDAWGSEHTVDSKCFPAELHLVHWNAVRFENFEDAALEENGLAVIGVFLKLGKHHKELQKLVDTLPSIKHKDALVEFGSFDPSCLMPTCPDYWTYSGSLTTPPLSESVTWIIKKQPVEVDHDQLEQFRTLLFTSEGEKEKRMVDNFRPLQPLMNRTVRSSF

SMILES: CC1(C)C(/C=C/C2=C(NCCCOCCOCCOCCCNC(=O)CCC(=O)NCCS(=O)(=O)c3c(F)c(F)c(S(N)(=O)=O)c(F)c3NC3CCCCCCC3)C(=C/C=C3\N(CCCCS(=O)(=O)[O-])c4ccccc4C3(C)C)/CCC2)=[N+](CCCCS(=O)(=O)[O-])c2ccccc21.[Na+] [AZ21-6, Sodium 4-((Z)-2-((E)-2-(2-((1-((2-(Cyclooctylamino)-3,5,6-trifluoro-4-sulfamoylphenyl)sulfonyl)-4,7-dioxo-12,15,18-trioxa-3,8-diazahenicosan-21-yl)amino)-3-((E)-2-(3,3-dimethyl-1-(4-sulfonatobutyl)-3H-indol-1-ium-2-yl)vinyl)cyclohex-2-en-1-ylidene)ethylidene)-3,3-dimethylindolin-1-yl)butane-1-sulfonate]
- Kd: 50 nM
